No end group written: not given here.
Tests used:
Shaker IR = assay: Two-electrode voltage clamp, Shaker IR in X. laevis oocytes; assay type: cell-based, Drosophila; conditions: 10 μM, 18–22 °C, n ≥ 3
Description: (§1) For the expression of the voltage-gated potassium channels (rKv1.1, rKv1.2, hKv1.3, rKv1.4, rKv1.5, rKv1.6, Shaker IR and hERG) in X. laevis oocytes, the linearized plasmids were transcribed using the T7 or SP6 mMESSAGE-mMACHINE transcription kit (Ambion, USA). The harvesting of stage V–VI oocytes from an anaesthetized female X. laevis frog was previously described. Oocytes were injected with 50 nl of cRNA at a concentration of 1 ng/nl using a micro-injector (Drummond Scientific, USA). The oocytes were incubated in a solution containing (in mM): NaCl, 96; KCl, 2; CaCl2, 1.8; MgCl2, 2; HEPES, 5 (pH 7.4), supplemented with 50 mg/l gentamycin sulfate.
(§2) Two-electrode voltage-clamp recordings were performed at room temperature (18–22 °C) using a Geneclamp 500 amplifier (Molecular Devices, USA) controlled by a pClamp data acquisition system (Axon Instruments, USA), as described in[47]. Whole cell currents from oocytes were recorded 1–4 days after injection. Bath solution composition was ND96 (in mM): NaCl, 96; KCl, 2; CaCl2, 1.8; MgCl2, 2 and HEPES, 5 (pH 7.4). Voltage and current electrodes were filled with 3 M KCl. The resistances of both electrodes were kept between 0.7 and 1.5 MΩ. […] All data were analysed using pClamp Clampfit 10.0 (Molecular Devices, Downingtown, PA, USA) and Origin 7.5 software (Originlab, Northampton, MA, USA).

pancreatic kallikrein = assay: SPR interaction with pancreatic kallikrein; assay type: binding; conditions: for SPR binding to kallikrein (in words): peptide immobilized on CM4 chip
Description: (§3) The interaction of the peptides with serine proteinases (trypsin, α-chymotrypsin, human neutrophil elastase, pancreatic kallikrein and cathepsin G) was studied using the surface plasmon resonance (SPR) method. The peptides were immobilized on a CM4 sensor chip. […] Kinetic parameters were calculated at 25 °C. Obtained data indicated the formation of tight complexes and eliminated non-specific binding (Table 2).
(§4) The study of the interaction of serine proteinases with rHCIQ2c1 and rHCIQ4c7 was performed on SPR biosensor Biacore 3000 (GE Healthcare, USA) running under the program “Biacore 3000 Control Software v.1.0”. The evaluation of data was carried out using “Biacore Evaluation v.4.1”. Peptides were covalent immobilized on carboxymethylated surface of the Biacore CM4 sensor chip (GE Healthcare, USA) activated by EDC/NHS (N-hydroxysuccinimide/1-ethyl-3-(3-dimethylaminopropyl)carbodiimide hydrochloride) mixture by the injection of peptide solution (100 µg/ml) in 10 mM sodium acetate (pH 5.5) during 10 min with flow rate 5 µl/min. Quantities of immobilized peptides were 970 RU (resonance units, 1 RU corresponds 1 pg peptide) for rHCIQ2c1 and 460 RU for rHCIQ4c7. In all of the experiments, the flow cell 1 (Fc1) without the immobilized polypeptides was considered as the reference cell for the correction of the signal responses. HBS (HEPES buffered saline-NaCl): 0.15 M NaCl, 0.01 M HEPES, pH 7.4 (cat. no. BR-1003-69, GE Healthcare, USA) was used as the running buffer for the SPR assays. Protease solutions at concentrations from 1 nM to 5 μM were passed through measuring and control biosensor cells at 25 °C during 5 min with a flow rate 5 µl/min. Further complex breakdown was recorded during at most 10 min. After each cycle of SPR measurement, the sensing surface was regenerated by the injection of 50 mM NaOH for 0.5 min at a flow rate of 50 μl/min. Changes in Gibbs free energy (ΔG) at 25 °C were calculated by the following equation:1 ΔG=RTlnKD, where KD is the dissociation constant. Changes in enthalpy (ΔH) and entropic term (−TΔS) were calculated from the linear equation:2 ΔG=ΔH−TΔS, using the liner approximation of temperature dependence of ΔG (Van’t Hoff diagram).

[1] = system: murine neuroblastoma Neuro2a cells; assay: 6-OHDA-induced cytotoxicity, cell viability (MTT); assay type: cell-based; conditions: for Increase of cell viability relative to cells treated with 6-OHDA: 10 μM peptide, 30 min before 6-OHDA 25 µM, mean of three independent experiments
Description: Effects of rHCIQ2c1 and rHCIQ4c7 were studied using murine neuroblastoma Neuro2a cells in the presence of 6-OHDA (25 µM). After incubation of Neuro2a cells with recombinant peptides and 6-OHDA for 24 h, the cell viability was evaluated using MTT assay.
The cytoprotective activities of peptides was examined, as described previously. Neuro2a murine neuroblastoma cells (ATCC CCL-131) (American Type Culture Collection, Virginia, USA) were cultivated in DMEM medium (BioloT, Russia) with 10% of fetal bovine serum (FBS, BioloT, Russia) and 80 µg/ml gentamicine (BioloT, Russia). The cells were seeded onto 96-well plate at concentration of 1 × 10^3 cells per well. Substances were added at different concentrations, and then cells were incubated for 30 min at 37 °C and 5% CO2. Cells were treated with 6-OHDA (25 μM) for 24 h at 37 °C with 5% CO2. Thereafter, medium was replaced with clean serum-free medium, and cells were treated with 3-(4,5-dimethylthiazol-2-yl)-2,5-diphenyltetrazolium bromide (MTT) for 4 h[77]. Then the medium was collected and whole cells were lysed in 100% dimethylsulfoxide (DMSO), the absorbance was measured at 570 nm using Multiscan FC (Thermo Fisher Scientific, USA). […] The results were expressed as the mean ± SD of three independent experiments.

[2] = system: human neutrophil elastase; assay: SPR interaction with neutrophil elastase; assay type: binding; conditions: for SPR binding to neutrophil elastase (in words): peptide immobilized on CM4 chip; for ka, association rate constant / kd, dissociation rate constant: protease 1 nM to 5 μM
Description: as §3, §4

rKv1.1 = assay: Two-electrode voltage clamp, rKv1.1 in X. laevis oocytes; assay type: cell-based; conditions: 10 μM, 18–22 °C, n ≥ 3
Description: as §1, §2

hKv1.3 = assay: Two-electrode voltage clamp, hKv1.3 in X. laevis oocytes; assay type: cell-based; conditions: 10 μM, 18–22 °C, n ≥ 3
Description: as §1, §2

rKv1.4 = assay: Two-electrode voltage clamp, rKv1.4 in X. laevis oocytes; assay type: cell-based; conditions: 10 μM, 18–22 °C, n ≥ 3
Description: as §1, §2

cathepsin G = assay: SPR interaction with cathepsin G; assay type: binding; conditions: for SPR binding to cathepsin G (in words): peptide immobilized on CM4 chip
Description: as §3, §4

hERG = assay: Two-electrode voltage clamp, hERG in X. laevis oocytes; assay type: cell-based; conditions: 10 μM, 18–22 °C, n ≥ 3
Description: as §1, §2

[3] = kallikrein, SPR Biacore 3000, peptide immobilized on CM4 chip, HBS pH 7.4, 25 °C, protease 1 nM to 5 μM
[4] = neutrophil elastase, SPR Biacore 3000, peptide immobilized on CM4 chip, HBS pH 7.4, 25 °C
[5] = cathepsin G, SPR Biacore 3000, peptide immobilized on CM4 chip, HBS pH 7.4, 25 °C, protease 1 nM to 5 μM

Substance | Activity on Shaker IR (Shaker IR) | SPR binding to kallikrein (in words) (pancreatic kallikrein) | Increase of cell viability relative to cells treated with 6-OHDA ([1]; 24 h, MTT) | Toxicity to Neuro2a cells ([1]; 10 μM, MTT) | SPR binding to neutrophil elastase (in words) ([2]; SPR) | KA, association constant [2, 4] | ka, association rate constant [2, 4] | kd, dissociation rate constant [2, 4] | Activity on Kv1.1 (rKv1.1) | Activity on Kv1.3 (hKv1.3) | Activity on Kv1.4 (rKv1.4) | SPR binding to cathepsin G (in words) (cathepsin G) | Activity on hERG (hERG) | also measured
rHCIQ2c1: recombinant Kunitz-peptide of Heteractis crispa, most prevalent isoform, mature peptide 58 aa, expressed in E. coli (IQGNICSEPKKVGRCRGSFPRFYFDSETGKCTPFIYGGCGGNGNNFETLHACRAICRA; ends and bridges not checked; cysteine pairing not given here) | neither 10 μM of rHCIQ2c1 nor rHCIQ4c7 exerted any activity on the Kv channels | specifically binds to all target proteinases | 47% | non-toxic | specifically binds to all target proteinases | 7.9e+06 M⁻¹ | 68000 s/M | 0.00861 s⁻¹ | neither 10 μM of rHCIQ2c1 nor rHCIQ4c7 exerted any activity on the Kv channels | neither 10 μM of rHCIQ2c1 nor rHCIQ4c7 exerted any activity on the Kv channels | neither 10 μM of rHCIQ2c1 nor rHCIQ4c7 exerted any activity on the Kv channels | specifically binds to all target proteinases | neither 10 μM of rHCIQ2c1 nor rHCIQ4c7 exerted any activity on the Kv channels | KA, association constant (pancreatic kallikrein; kallikrein, SPR Biacore 3000, peptide immobilized on CM4 chip, HBS pH 7.4, 25 °C): 2.04e+06 M⁻¹; ka, association rate constant (pancreatic kallikrein; [3]): 49400 s/M; kd, dissociation rate constant (pancreatic kallikrein; [3]): 0.00379 s⁻¹; Significance of effect on viability of 6-OHDA-treated cells ([1]; 10 μM, 6-OHDA 25 µM, 24 h, * p < 0.05): The reliable effect was revealed; Concentration of maximum cytoprotective activity ([1]; 6-OHDA 25 µM, 24 h, MTT): 10 µM; Dose-response of cytoprotective effect ([1]; 6-OHDA 25 µM, 24 h, MTT): linear dose-dependent character; KA, association constant (cathepsin G; cathepsin G, SPR Biacore 3000, peptide immobilized on CM4 chip, HBS pH 7.4, 25 °C): 3.58e+09 M⁻¹; ka, association rate constant (cathepsin G; [5]): 1.29e+06 s/M; kd, dissociation rate constant (cathepsin G; [5]): 0.000359 s⁻¹; Kd (cathepsin G; cathepsin G, SPR Biacore 3000, peptide immobilized on CM4 chip, HBS pH 7.4, 25 °C, read-out: KD, dissociation constant): 0.000279 µM
rHCIQ4c7: recombinant Kunitz-peptide of Heteractis crispa, isoform with the rare substitution Gly17Glu | neither 10 μM of rHCIQ2c1 nor rHCIQ4c7 exerted any activity on the Kv channels | bounds to trypsin and elastase only | 14% | non-toxic | bounds to trypsin and elastase only | 1.05e+06 M⁻¹ | 11900 s/M | 0.0114 s⁻¹ | neither 10 μM of rHCIQ2c1 nor rHCIQ4c7 exerted any activity on the Kv channels | neither 10 μM of rHCIQ2c1 nor rHCIQ4c7 exerted any activity on the Kv channels | neither 10 μM of rHCIQ2c1 nor rHCIQ4c7 exerted any activity on the Kv channels | bounds to trypsin and elastase only | neither 10 μM of rHCIQ2c1 nor rHCIQ4c7 exerted any activity on the Kv channels | KD with elastase relative to rHCIQ2c1 ([2]; SPR, 25 °C): binding with elastase differed insignificantly; Kd ([2]; neutrophil elastase, SPR Biacore 3000, peptide immobilized on CM4 chip, HBS pH 7.4, 25 °C, read-out: KD, dissociation constant): 0.955 µM
